Results taken from publication PMC8779355, “In Silico and In Vitro Structure–Activity Relationship of Mastoparan and Its Analogs” (Molecules, 2022).
Values after ≈ are worked out from the molar mass of the structure shown. Residues, ends and D or L forms follow the SMILES beside them.

What was measured:
Conditions in all cases: nutrient broth, 1 × 10^5 CFU/mL, peptide 0.1 to 50 μg/mL, O.D.600 at 18 h, MIC = growth inhibition greater than 90%, three independent experiments in triplicate
[1] = system: K. pneumoniae ATCC27736 (DMST4739); format: cell-based, Klebsiella pneumoniae
Experimental: (§1) The biological activities of MpVT and its analogs were investigated by assaying antimicrobial activities and by studying the hemolysis activity. The minimal inhibitory concentrations (MIC) of the peptides were determined based on methods described by Anunthawan et al.. […] The MpVT4-7 could not detect antibacterial activity when using a peptide concentration lower than 50 μg/mL. The E. coli strains that were the most susceptible against MpVT peptides were selected for visualizing the bacterial morphology when treated with these peptides using a scanning electron microscope. The normal and abnormal morphologies of bacteria cells were visualized after 60 min treatment with the MpVT peptides (Figure 6).
(§2) The microorganisms; Staphylococcus auerus ATCC 27,853 (DMST 4739), Staphylococcus auerus ATCC 25923, Bacillus subtilis ATCC663, Escherichia coli 0157:H7, Escherichia coli DH5α, and Klebsiella pneumoniae ATCC27736 (DMST4739) were used to determine the MIC of MpVT and its analogs. The bacterial strains were inoculated to enter their log phases, and then the suspension was diluted in nutrient broth. The microorganisms were prepared at a final concentration of 1 × 10^5 CFU/mL. The peptides’ concentrations, ranging from 0.1 to 50 μg/mL, were determined. Serial doubling dilutions of various concentrations of MpVTs were made into a nutrient broth to a final volume of 100 μL in each well of a 96-well plate. A% inhibition = 100 − (O.D.600 at 18 h − O.D.600 at immediate treatment × 100/O.D.600 at […] of control − O.D.600 at 18 h of control − O.D.600 at immediate treatment of control). (1)

S. aureus ATCC25923 = format: cell-based, Staphylococcus auerus
Experimental: as §1, §2

[2] = system: P. aeruginosa ATCC 27,853 (DMST 4739); format: cell-based
Experimental: as §1, §2

E. coli DH5α = format: cell-based, Escherichia coli
Experimental: as §1, §2

E. coli 0157:H7 = format: cell-based, Escherichia coli
Experimental: as §1, §2

B. subtilis ATCC663 = format: cell-based, Bacillus subtilis
Experimental: as §1, §2

| SMILES | MIC [1] [µg/mL] | MIC (S. aureus ATCC25923) [µg/mL] | MIC [2] [µg/mL] | MIC (E. coli DH5α) [µg/mL] | MIC (E. coli 0157:H7) [µg/mL] | MIC (B. subtilis ATCC663) [µg/mL] |
| --- | --- | --- | --- | --- | --- | --- |
| CC[C@H](C)[C@H](NC(=O)[C@H](Cc1ccccc1)NC(=O)[C@H](Cc1ccccc1)NC(=O)[C@H](CCCCN)NC(=O)[C@H](CCCCN)NC(=O)[C@H](C)NC(=O)[C@H](Cc1ccccc1)NC(=O)[C@H](C)NC(=O)[C@H](C)NC(=O)[C@@H](NC(=O)[C@H](C)NC(=O)[C@@H](N)CCCCN)[C@@H](C)CC)C(=O)O [MpVT5] (H-KAIAAFAKKFFI-OH) | >50.00 | >50.00 | >50.00 | 6.25 (≈ 4.61 µM) | >50.00 | >50.00 |
| CC[C@H](C)[C@H](N)C(=O)N[C@@H](CC(N)=O)C(=O)N[C@@H](CC(C)C)C(=O)N[C@@H](CCCCN)C(=O)N[C@@H](C)C(=O)N[C@H](C(=O)N[C@@H](C)C(=O)N[C@@H](C)C(=O)N[C@@H](Cc1ccccc1)C(=O)N[C@@H](C)C(=O)N[C@@H](CCCCN)C(=O)N[C@@H](CCCCN)C(=O)N[C@@H](CC(C)C)C(=O)N[C@H](C(=O)O)[C@@H](C)CC)[C@@H](C)CC [MpVT] (H-INLKAIAAFAKKLI-OH) | 25.00 (≈ 16.5 µM) | 50.00 (≈ 33 µM) | 25.00 (≈ 16.5 µM) | 3.125 (≈ 2.06 µM) | 50.00 (≈ 33 µM) | 25.00 (≈ 16.5 µM) |
| CC[C@H](C)[C@H](NC(=O)[C@H](Cc1ccccc1)NC(=O)[C@H](CC(C)C)NC(=O)[C@H](C)NC(=O)[C@H](CCCCN)NC(=O)[C@H](C)NC(=O)[C@H](Cc1ccccc1)NC(=O)[C@H](C)NC(=O)[C@H](C)NC(=O)[C@@H](NC(=O)[C@H](C)NC(=O)[C@@H](N)CCCCN)[C@@H](C)CC)C(=O)O [MpVT6] (H-KAIAAFAKALFI-OH) | >50.00 | >50.00 | >50.00 | 12.50 (≈ 9.89 µM) | >50.00 | >50.00 |
| CC[C@H](C)[C@H](NC(=O)[C@H](Cc1ccccc1)NC(=O)[C@H](CC(C)C)NC(=O)[C@H](CCCCN)NC(=O)[C@H](C)NC(=O)[C@H](C)NC(=O)[C@H](Cc1ccccc1)NC(=O)[C@H](C)NC(=O)[C@H](C)NC(=O)[C@@H](NC(=O)[C@H](C)NC(=O)[C@@H](N)CCCCN)[C@@H](C)CC)C(=O)O [MpVT7] (H-KAIAAFAAKLFI-OH) | >50.00 | >50.00 | >50.00 | 6.25 (≈ 4.95 µM) | >50.00 | 50.00 (≈ 39.6 µM) |
| CC[C@H](C)[C@H](NC(=O)[C@H](Cc1ccccc1)NC(=O)[C@H](CCCCN)NC(=O)[C@H](CCCCN)NC(=O)[C@H](C)NC(=O)[C@H](Cc1ccccc1)NC(=O)[C@H](C)NC(=O)[C@H](C)NC(=O)[C@@H](NC(=O)[C@H](C)NC(=O)[C@@H](N)CCCCN)[C@@H](C)CC)C(=O)O [MpVT4] (H-KAIAAFAKKFI-OH) | >50.00 | >50.00 | 25.0 (≈ 20.7 µM) | 25.00 (≈ 20.7 µM) | >50.00 | >50.00 |
| CC[C@H](C)[C@H](N)C(=O)N[C@@H](CC(N)=O)C(=O)N[C@@H](CC(C)C)C(=O)N[C@@H](CCCCN)C(=O)N[C@@H](C)C(=O)N[C@H](C(=O)N[C@@H](C)C(=O)N[C@@H](C)C(=O)N[C@@H](Cc1ccccc1)C(=O)N[C@@H](C)C(=O)N[C@@H](CCCCN)C(=O)N[C@@H](CCCCN)C(=O)N[C@@H](Cc1ccccc1)C(=O)N[C@H](C(=O)O)[C@@H](C)CC)[C@@H](C)CC [MpVT1] (H-INLKAIAAFAKKFI-OH) | 6.25 (≈ 4.04 µM) | 12.50 (≈ 8.08 µM) | 6.25 (≈ 4.04 µM) | 0.39 (≈ 0.252 µM) | 6.25 (≈ 4.04 µM) | 3.125 (≈ 2.02 µM) |
| CC[C@H](C)[C@H](N)C(=O)N[C@@H](CC(N)=O)C(=O)N[C@@H](CC(C)C)C(=O)N[C@@H](CCCCN)C(=O)N[C@@H](C)C(=O)N[C@H](C(=O)N[C@@H](C)C(=O)N[C@@H](C)C(=O)N[C@@H](Cc1ccccc1)C(=O)N[C@@H](C)C(=O)N[C@@H](CCCCN)C(=O)N[C@@H](C)C(=O)N[C@@H](CC(C)C)C(=O)N[C@H](C(=O)O)[C@@H](C)CC)[C@@H](C)CC [MpVT3] (H-INLKAIAAFAKALI-OH) | 25.00 (≈ 17.2 µM) | 50.00 (≈ 34.3 µM) | 6.25 (≈ 4.29 µM) | 0.78 (≈ 0.535 µM) | 50.00 (≈ 34.3 µM) | 12.50 (≈ 8.58 µM) |
